This is an account of results in patent EP0033789A1, “2-alpha-Methyl-dopaminimino-6,7-dihydroxy-1,2,3,4-tetrahydronaphthalene, its salts, and a process for preparation thereof” (priority 1980, dated 1981).

Like-named read-outs stand apart in the source and are kept apart here.

This experiment concerns anesthetized, open-chested dogs. Briefly: Inotropic, chronotropic and pressor/depressor activities in anesthetized, open-chested dogs (Walton-Brodie strain gauge, ventricular and aortic catheters). The experiment is classed as in vivo. Particulars: for ED50 / ED (75% increase) / ED (100% increase) / ED (150% increase): Canis lupus familiaris; for ED50: read-out: Inotropic Potency CF50; for ED (75% increase): read-out: Inotropic Potency dP/dt75; for ED (100% increase): read-out: Inotropic Potency CF100; for ED (150% increase): read-out: Inotropic Potency dP/dt150; for Cardioselectivity: Change in diastolic blood pressure obtained at CF50 / Inotropic Selectivity: Change in heart rate obtained at CF50: at the dose giving 50% increase in cardiac contractile force; for Cardioselectivity: Change in diastolic blood pressure obtained at dP/dt75 / Inotropic Selectivity: Change in heart rate obtained at dP/dt75: at the dose giving 75% increase in left ventricular dP/dt; for Cardioselectivity: Change in diastolic blood pressure obtained at CF100 / Inotropic Selectivity: Change in heart rate obtained at CF100: at the dose giving 100% increase in cardiac contractile force; for Cardioselectivity: Change in diastolic blood pressure obtained at dP/dt150 / Inotropic Selectivity: Change in heart rate obtained at dP/dt150: at the dose giving 150% increase in left ventricular dP/dt. On the procedure:
The following tests were conducted: • In anesthetized, open-chested dogs, instrumented with a Walton-Brodie strain gauge to measure cardiac contractile force, a ventricular catheter to measure left ventricular dP/dt and an aortic catheter to measure diastolic blood pressure and heart rate. Contractile force and L.V. dP/dt are indices of cardiac contractility and provide information on the inotropic state of the heart. The experimental standard drugs are compared by normalizing pressor/depressor and heart rate responses to a given inotropic effect. Cardioselective inotropic agents will produce minimal diastolic pressure changes for any given inotropic effect. Likewise, inotropic selective agents will produce minimal heart rate changes for any given inotropic effect.

[1] abbreviates: dose required to produce 50% increase in cardiac contractile force (CF), means ± SEM.
Setting [2] is: dose required to produce 75% increase in left ventricular dP/dt, means ± SEM.
Where [3] appears, read: dose required to produce 100% increase in cardiac contractile force (CF), means ± SEM.
The mark [4] stands for this setting: dose required to produce 150% increase in left ventricular dP/dt, means ± SEM.

With `COc1cc2c(cc1OC)CC(NC(C)CCc1ccc(O)cc1)CC2` (stereo not shown) [A, 2-(3-p-hydroxyphenyl-1-methylpropyl) amino-6,7-dimethoxy-1,2,3,4-tetrahydronaphthalene], the ED50 under setting [1] amounted to 158 µg/kg. Further, under setting [2], the ED (75% increase) turned out to be 262 µg/kg. Further, under setting [3], the ED (100% increase) was found to be 333 µg/kg. The ED (150% increase) under setting [4] was determined as 756 µg/kg. Also, where the note is “means ± SEM”, the “Cardioselectivity: Change in diastolic blood pressure obtained at CF50” value (“Cardioselectivity: Change … at CF50” for short) was -17 mm Hg, the “Inotropic Selectivity: Change in heart rate obtained at CF50” value (from here on “Inotropic Selectivity: Change … at CF50”) turned out to be 5 BPM, the “Cardioselectivity: Change in diastolic blood pressure obtained at dP/dt75” value (“Cardioselectivity: Change … at dP/dt75” below) is recorded as -23 mm Hg and the “Inotropic Selectivity: Change in heart rate obtained at dP/dt75” value (“Inotropic Selectivity: Change … at dP/dt75” below) stood at 10 BPM. Besides, where the note is “means ± SEM”, the “Cardioselectivity: Change in diastolic blood pressure obtained at CF100” value (from here on “Cardioselectivity: Change … at CF100”) is recorded as -27 mm Hg, the “Inotropic Selectivity: Change in heart rate obtained at CF100” value (shortened to “Inotropic Selectivity: Change … at CF100”) amounted to 14 BPM, the “Cardioselectivity: Change in diastolic blood pressure obtained at dP/dt150” value (from here on “Cardioselectivity: Change … at dP/dt150”) is listed as -40 mm Hg and the “Inotropic Selectivity: Change in heart rate obtained at dP/dt150” value (from here on “Inotropic Selectivity: Change … at dP/dt150”) is recorded as 27 BPM.
`CC(C)NCC(O)c1ccc(O)c(O)c1` (stereo not shown) [F, 4-(1-hydroxy-2-((1-methylethyl)-amino)ethyl)-1,2-benzenediol]: under setting [2], the ED (75% increase) was determined as 0.04 ± 0.01 µg/kg. The ED (100% increase) under setting [3] came out at 0.09 ± 0.02 µg/kg. The ED (150% increase) under setting [4] was 0.14 ± 0.05 µg/kg. Where the note is “means ± SEM”, the “Cardioselectivity: Change … at CF50” value was -6 ± 2 mm Hg, the “Inotropic Selectivity: Change … at CF50” value is given as 14 ± 2 BPM, the “Cardioselectivity: Change … at dP/dt75” value is listed as -6 ± 2 mm Hg and the “Inotropic Selectivity: Change … at dP/dt75” value is given as 14 ± 1 BPM. For the same compound, for the setting “means ± SEM”, the “Cardioselectivity: Change … at CF100” value is -15 ± 2 mm Hg, the “Inotropic Selectivity: Change … at CF100” value came to 34 ± 3 BPM, the “Cardioselectivity: Change … at dP/dt150” value is on record as -16 ± 2 mm Hg and the “Inotropic Selectivity: Change … at dP/dt150” value came to 41 ± 5 BPM.
In the case of `CC(CCc1ccc(O)cc1)NCCc1ccc(O)c(O)c1` (racemic) [D, (±)-4-(2(3-p-hydroxyphenyl-1-methylpropyl)amino) ethyl-1,2-benzenediol], the ED50 under setting [1] amounted to 1.4 ± 0.2 µg/kg. Under setting [3], the ED (100% increase) came to 4.4 µg/kg. The ED (150% increase) under setting [4] was determined as 4 ± 0.6 µg/kg. Where the note is “means ± SEM”, the “Cardioselectivity: Change … at CF50” value was found to be 3 ± 1 mm Hg, the “Inotropic Selectivity: Change … at CF50” value amounted to 3 ± 1 BPM, the “Cardioselectivity: Change … at dP/dt75” value is reported as 4 ± 1 mm Hg and the “Inotropic Selectivity: Change … at dP/dt75” value came out at 3 ± 1 BPM. In addition, under “means ± SEM”, the “Cardioselectivity: Change … at CF100” value is given as 4 ± 3 mm Hg, the “Inotropic Selectivity: Change … at CF100” value is 17 ± 5 BPM, the “Cardioselectivity: Change … at dP/dt150” value amounted to 3 ± 3 mm Hg and the “Inotropic Selectivity: Change … at dP/dt150” value turned out to be 13 ± 2 BPM.
On to `CC(CCc1ccc(O)cc1)NC1CCc2cc(O)c(O)cc2C1` (stereo not shown) [B, 2-(3-p-hydroxyphenyl-1-methylpropyl) amino-6,7-dihydroxy-1,2,3,4-tetrahydronaphthalene], for which, under setting [1], the ED50 was determined as 56.3 µg/kg. The ED (75% increase) under setting [2] turned out to be 125 µg/kg. Further, under setting [3], the ED (100% increase) turned out to be 198 µg/kg. In addition, the ED (150% increase) under setting [4] worked out at 359 µg/kg. Also, where the note is “means ± SEM”, the “Cardioselectivity: Change … at CF50” value is recorded as -13 mm Hg, the “Inotropic Selectivity: Change … at CF50” value is -17 BPM, the “Cardioselectivity: Change … at dP/dt75” value stood at 37 mm Hg and the “Inotropic Selectivity: Change … at dP/dt75” value is on record as 0 BPM. Moreover, where the note is “means ± SEM”, the “Cardioselectivity: Change … at CF100” value is 57 mm Hg, the “Inotropic Selectivity: Change … at CF100” value is listed as 15 BPM, the “Cardioselectivity: Change … at dP/dt150” value is 75 mm Hg and the “Inotropic Selectivity: Change … at dP/dt150” value came to 32 BPM.
Turning to `NC1CCc2cc(O)c(O)cc2C1` (stereo not shown) [C, 2-amino-6,7-dihydroxy-1,2,3,4-tetrahydro-naphthalene], the ED50 amounted to 44.9 ± 3.3 µg/kg, the ED (100% increase) worked out at 119 ± 34.7 µg/kg, the ED (75% increase) came out at 40.4 ± 3.1 µg/kg and the ED (150% increase) amounted to 75.6 ± 5.8 µg/kg. In addition, where the note is “means ± SEM”, the “Cardioselectivity: Change … at CF50” value is 31 ± 9 mm Hg, the “Inotropic Selectivity: Change … at CF50” value is recorded as -12 ± 9 BPM, the “Cardioselectivity: Change … at dP/dt75” value is on record as 30 + 5 mm Hg and the “Inotropic Selectivity: Change … at dP/dt75” value was -12 ± 10 BPM. In addition, where the note is “means ± SEM”, the “Cardioselectivity: Change … at CF100” value came to 61 ± 10 mm Hg, the “Inotropic Selectivity: Change … at CF100” value came out at 21 ± 17 BPM, the “Cardioselectivity: Change … at dP/dt150” value is on record as 51 ± 5 mm Hg and the “Inotropic Selectivity: Change … at dP/dt150” value is 5 ± 8 BPM.
On to `NCCc1ccc(O)c(O)c1` [E, 4-(2-aminoethyl)-1,2-benzenediol], for which, under setting [1], the ED50 was determined as 9.1 ± 1 µg/kg. Besides, under setting [2], the ED (75% increase) was 9.9 ± 0.7 µg/kg. Also, the ED (100% increase) under setting [3] stood at 19.6 ± 2.7 µg/kg. Further, the ED (150% increase) under setting [4] turned out to be 23.7 ± 3 µg/kg. For the same compound, under “means ± SEM”, the “Cardioselectivity: Change … at CF50” value is on record as -20 ± 6 mm Hg, the “Inotropic Selectivity: Change … at CF50” value is listed as 5 ± 5 BPM, the “Cardioselectivity: Change … at dP/dt75” value is given as -20 ± 7 mm Hg and the “Inotropic Selectivity: Change … at dP/dt75” value was 5 ± 6 BPM. For the same compound, where the note is “means ± SEM”, the “Cardioselectivity: Change … at CF100” value is -12 ± 9 mm Hg, the “Inotropic Selectivity: Change … at CF100” value is recorded as 12 ± 5 BPM, the “Cardioselectivity: Change … at dP/dt150” value is recorded as -10 ± 8 mm Hg and the “Inotropic Selectivity: Change … at dP/dt150” value came to 13 ± 6 BPM.
